Assay [1] relates to mRNA. Nature of the assay: Capping efficiency of mRNA by LC-MS. It is filed as biochemical. Particulars: cap analog 4 mM in in vitro transcription, RNase H cleaved 5′ fragment. As to the method: (§1) 1) The plasmids were linearized and the DNA templates were purified.
(§2) 2) The mRNA was synthesized by in vitro transcription, using 11 cap structures of the present disclosure, positive control CleanCap®AG (3′OMe) (Trilink, N-7413), negative control (uncapped mRNA) and blank control (DNase/RNase-Free water), respectively.
(§3) The reaction was carried out at 37 °C for 2 to 3 hours. TURBO DNase digestion was carried out for 15 minutes. The mRNA was precipitated by LiC for 30 min or more or overnight, and the mRNA precipitate was washed with 75% ethanol, dried briefly to evaporate the ethanol, and the mRNA was redissolved with RNase-Free water.
Gradient annealing was performed in a PCR instrument: […]
5) Magnetic beads were pre-treated and bound to probes.
100 μL of magnetic beads were taken and placed on a magnetic stand. The storage solution was discarded, and 100 μL of 1*BW solution was added thereto. After mixing well, the mixture was placed on the magnetic stand, and the supernatant was discarded. The wash was carried out three times in the same way. 100 μL of wash A buffer was added thereto. After mixing well, the mixture was placed on the magnetic stand, and the supernatant was discarded. The wash was carried out three times in the same way. 100 μL of wash B buffer was added thereto. After mixing well, the mixture was placed on the magnetic stand, and the supernatant was discarded. The wash was carried out three times in the same way. 120 μL of the sample was added to the magnetic bead solution and incubated for 30 min at room temperature with gentle mixing while incubating.
6) The mRNA was cut to obtain the 5′ single-stranded sequence of mRNA bound to probes.
20 μL of RNase H (5 U/μL) was added thereto, incubated at 37 °C for 3 hours, and mixed well every half hour. 100 μL of 1*BW solution was added thereto. After mixing well, the mixture was placed on the magnetic stand, and the supernatant was discarded. The wash was carried out three times in the same way. 100 μL of deionized water solution was added thereto. After mixing well, the mixture was placed on the magnetic stand, and the supernatant was discarded. The wash was carried out three times in the same way. 100 μL of 75% methanol was added thereto at 80 °C, then the mixture was heated to 80 °C on a heating plate and held for 3 min, placed on the magnetic stand, and the supernatant was aspirated. The sample was dried at room temperature for 45 min to 10 μL using an evaporative centrifuge and then resuspended in 50 μL of 100 μM EDTA/1% MeOH for LC-MS analysis.
LC-MS was used to analyze the capping efficiency of mRNA synthesized by analogues with different cap structures. The capping efficiency results of some compounds in the detection results are now provided.

In assay [2] the test system is mRNA. The assay is described as follows: mRNA synthesis by in vitro transcription (co-transcriptional capping), final product mass. Particulars: obtained from 20 μL mRNA synthesis reaction system; T7 RNA Polymerase; cap analog 4 mM; 37 °C, 2 to 3 hours. The format is biochemical. The protocol:
as §1, §2, §3
3) The transcription product was purified, and the reaction yield was calculated to provide the test results of some compounds, as shown in Table 2.

For assay [3], the system named is HEK293T cells. The assay is described as follows: Expression efficiency of capped luciferase mRNAs in HEK293T cells. It is filed as cell-based. Particulars: 6 h after transfection of capped luciferase mRNA into HEK293T cells; ratio to N-7413 (= 1). As to the method: 2. Evaluation of Expression Efficiency of Different Capped Luciferase mRNAs in HEK293T Cells
1) HNE293T cells were cultured in DMEM medium containing 10% FBS and penicillin/streptomycin at 37 °C and 5% CO2.
2) The cultured HEK293T cells were spread in a 96-well plate with 1.25×10^4 cells per well.
3) After the cells completely adhered to the wall, 0.5 μg of a mixture of mRNA sample and Polyplus jetMESSENGER was added to each well of cells, and cultured at 37 °C and 5% CO2 for 6 hours.
4) The growth medium was removed from the cells to be tested and the cells were rinsed with PBS. After centrifugation to remove PBS, 50 μL of 1× lysis buffer was added thereto, and cells and all liquid were transferred to a microcentrifuge tube, and then centrifuged at 12000×g and 4 °C for 2 min.
5) The supernatant was transferred to a new tube. Fluorescence readings were detected using the ONE-Glo Luciferase Assay System Kit.
3. All compounds, N-7413, negative control and blank control were tested under the same conditions, and some experimental results in the test results are shown in Table 5.
The relative fluorescence reading results (6 h) after transfection of capped mRNA into 293T cells are now provided, as shown in Table 5. It can be seen from the FIGURE that the mRNA capped by the compound of the present disclosure has a high expression level, and some cap structures can enable higher expression efficiency of mRNA compared to N-7413.

For seven molecules, Capping efficiency, Final product mass and Relative fluorescence reading results are on record in US20260365690A1, “COMPOUND FOR RNA CAPPING AND USE THEREOF” (GUANGZHOU HENOVCOM BIOSCIENCE CO., LTD., priority 2022, published 2026).

Molecules are shown by their SMILES.

As for `C=CC[C@H]1[C@@H](O)[C@H](n2c[n+](C)c3c(=O)[nH]c(N)nc32)O[C@@H]1COP(=O)(O)OP(=O)(O)OP(=O)(O)OC[C@H]1O[C@@H](n2cnc3c(N)ncnc32)[C@H](OC)[C@@H]1OP(=O)(O)OC[C@H]1O[C@@H](n2cnc3c(=O)[nH]c(N)nc32)[C@H](O)[C@@H]1O` [Compound 710], the Capping efficiency entry in assay [1] is listed as “A (100% > A ≥ 95%)”. Also, the Final product mass in assay [2] came to 108 µg. In addition, in assay [3], the Relative fluorescence reading amounted to 1.90.
For the molecule `CO[C@@H]1[C@H](OP(=O)(O)OC[C@H]2O[C@@H](n3cnc4c(=O)[nH]c(N)nc43)[C@H](O)[C@@H]2O)[C@@H](COP(=O)(O)OP(=O)(O)OP(=O)(O)OC[C@H]2O[C@@H](n3c[n+](C)c4c(=O)[nH]c(N)nc43)[C@H](O)[C@@H]2NC(C)=O)O[C@H]1n1cnc2c(N)ncnc21` [Compound 289], in assay [1], the Capping efficiency entry is recorded as “A (100% > A ≥ 95%)”. The molecule also had a Final product mass in assay [2] of 113 µg. Besides, the Relative fluorescence reading in assay [3] is given as 1.70.
Turning to `CCC[C@H]1[C@@H](O)[C@H](n2c[n+](C)c3c(=O)[nH]c(N)nc32)O[C@@H]1COP(=O)(O)OP(=O)(O)OP(=O)(O)OC[C@H]1O[C@@H](n2cnc3c(N)ncnc32)[C@H](OC)[C@@H]1OP(=O)(O)OC[C@H]1O[C@@H](n2cnc3c(=O)[nH]c(N)nc32)[C@H](O)[C@@H]1O.[Na+]` [Compound 5], the Capping efficiency entry in assay [1] is reported as “A (100% > A ≥ 95%)”. This molecule also gave a Final product mass in assay [2] of 117 µg. Further, in assay [3], the Relative fluorescence reading is given as 1.85.
For `CO[C@@H]1[C@H](OP(=O)(O)OC[C@H]2O[C@@H](n3cnc4c(=O)[nH]c(N)nc43)[C@H](O)[C@@H]2O)[C@@H](COP(=O)(O)OP(=O)([O-])OP(=O)(O)OC[C@H]2O[C@@H](n3c[n+](C)c4c(=O)[nH]c(N)nc43)[C@H](O)[C@@H]2C(=O)N(C)C)O[C@H]1n1cnc2c(N)ncnc21` [Compound 193], the Capping efficiency entry in assay [1] was “A (100% > A ≥ 95%)”. In assay [2], this molecule returned a Final product mass of 105 µg. Further, in assay [3], the Relative fluorescence reading was found to be 1.64.
For the molecule `CO[C@@H]1[C@H](OP(=O)(O)OC[C@H]2O[C@@H](n3cnc4c(=O)[nH]c(N)nc43)[C@H](O)[C@@H]2O)[C@@H](COP(=O)(O)OP(=O)(O)OP(=O)(O)OC[C@H]2O[C@@H](n3c[n+](C)c4c(=O)[nH]c(N)nc43)[C@H](O)[C@@H]2CCF)O[C@H]1n1cnc2c(N)ncnc21` [Compound 19], in assay [1], the Capping efficiency result was “A (100% > A ≥ 95%)”. Further, in assay [2], the Final product mass was determined as 137 µg. For the same molecule, the Relative fluorescence reading in assay [3] came to 1.52.
As for `CO[C@@H]1[C@H](OCOC[C@H]2O[C@@H](n3cnc4c(=O)[nH]c(N)nc43)[C@H](O)[C@@H]2O)[C@@H](COP(=O)(O)OP(=O)(O)OP(=O)(O)OC[C@H]2O[C@@H](n3c[n+](C)c4c(=O)[nH]c(N)nc43)[C@H](O)[C@@H]2C)O[C@H]1n1cnc2c(N)ncnc21` [Compound 57], in assay [1], the Capping efficiency result is recorded as “C (90% > C ≥ 80%)”. In assay [2], this molecule registered a Final product mass of 90 µg. Besides, the Relative fluorescence reading in assay [3] turned out to be 0.88.
Regarding `CO[C@@H]1[C@H](OP(=O)(O)OC[C@H]2O[C@@H](n3cnc4c(=O)[nH]c(N)nc43)[C@H](O)[C@@H]2O)[C@@H](COP(=O)(O)OP(=O)(O)OP(=O)(O)OC[C@H]2O[C@@H](n3c[n+](C)c4c(=O)[nH]c(N)nc43)[C@H](O)[C@@H]2C)O[C@H]1n1cnc2c(N)ncnc21` [Compound 1], the Capping efficiency entry in assay [1] is recorded as “A (100% > A ≥ 95%)”. The same molecule came in with a Final product mass in assay [2] of 96 µg. Also, the Relative fluorescence reading in assay [3] is recorded as 1.74.
